# Measured values taken from patent US20250255293A1, “TISSUE DECONTAMINATION AND PRESERVATION SYSTEM” (priority 2024, published 2025).
# “And” between values parts separate entries of the source, which are not always exact repeats. Identical values can stand only once. Like-named read-outs stand apart in the source and are kept apart here.
# What was measured:
# [1] = tested on: bacteria (quantitative bacterial cultures); assay: Quantitative bacterial cultures, in vivo reimplantation of decontaminated fracture fragment (Example 4); parameters: species or system canine; details: individual dogs
# Protocol: A grade 3 open femoral bicondylar fracture was created in 3 canines. A lateral parapatellar approach was used, the fragment was cultured and retrieved. The fragment was irrigated, treated with 0.002% chlorhexidine for 20 minutes, irrigated, and stored in MOPS® for 7 days, after which the fragment was reimplanted, and both condyles were repaired with 3.5 mm cannulated lag screws. After 3 months, quantitative bacterial cultures (CFU/g; Table 2) and functional outcomes (Table 3) were measured.
# [2] = tested on: chondrocytes of osteoarticular fracture fragments; assay: Viable chondrocyte density / % VCD, live-dead assay (Example 5); assay type: cell-based; details: for % VCD (percentage of mean VCD of healthy day-0 samples): 20 min immersion (10% povidone-iodine or 0.002% chlorhexidine gluconate)
# Protocol: (§1) Skeletally mature purpose-bred research hounds (n=16) were humanely euthanized for purposes unrelated to the present study. Immediately following euthanasia, each dog was positioned in sternal recumbency with one forelimb extended and secured in a custom-made positioning apparatus. Fur was not clipped and no aseptic preparation or decontamination techniques were performed. Using a validated technique, a penetrating captive bolt stunner pistol (CASH Special, FRONTMATEC, Birmingham, United Kingdom) with a 1.25 grain cartridge was centered on the cranial (anterior) aspect of the distal humerus, immediately proximal to the elbow joint and with firm pressure against the secured elbow, the pistol was discharged, creating type 3 open distal humeral fractures. After the fractures were induced and radiographs obtained, the skin and soft tissues were aseptically removed. For each elbow (n=32), osteoarticular tissues were obtained from the distal humerus, proximal radius and proximal ulna such that 96 contaminated, devascularized, osteoarticular fracture fragments were randomly allocated to undergo treatment using one of the following protocols for comparison: 1)⋅Betadine (n=42): bulb irrigation using 1 L of 0.9% saline, followed by immersion in 10% povidone-iodine solution for 20 min, followed by bulb irrigation using 1 L of 0.9% saline; 2)⋅Chlorhexidine (n=42): bulb irrigation using 1 L of 0.9% saline, followed by immersion in 0.002% chlorhexidine gluconate solution immersion for 20 min, followed by bulb irrigation using 1 L of 0.9% saline; and 3)⋅Injured Control (n=12): no decontamination treatment. Each fragment was then immediately placed in 200 ml of Missouri Osteochondral Preservation System (MOPS®) solution in individual sterile closed containers, transported to the on-site laboratory and placed in a dedicated storage cabinet in standard room temperature and humidity conditions for 7 or 14 days.
# Viable Chondrocyte Density. At days 7 (n=21) or 14 (n=21) of storage, osteoarticular tissues were collected and processed for assessment of viable chondrocyte density (VCD). VCD was assessed using a live-dead assay involving calcein AM (live stain) and ethidium homodimer (dead stain). Briefly, tissues were sagittally sectioned using a Buchler Isomet low speed saw (Lake Bluff, IL, USA) to produce representative 1 mm-thick sections from each. Sections were placed in 6-well plates containing calcein AM (1 μg/ml) solution and ethidium homodimer (1 μM) in Phosphate Buffered Saline (PBS). The plates were incubated for 30 minutes at 37° C. After incubation, the stain was removed, the samples rinsed in PBS and tissues were mounted to the bottom of the plate using a 4% agarose solution. Fluorescent microscopy was used to obtain two images per section, which were analyzed to quantify tissue viability based on VCD. The VCD was determined by counting the number of viable cells in each image and dividing this by the area of the tissue in the image (#of viable cells/area of cartilage tissue mm^2). The percentage of viable chondrocyte density (% VCD) for each fracture fragment was calculated based on the mean VCD of healthy day-0 samples using the formula: (fractured VCD/control VCD)×100.
# (§2) Statistical Analysis. All data were analyzed using statistical software R Studio, version 4.3.1 (Posit Software, Boston, MA, USA). Descriptive statistics for VCD, % VCD and CFU were calculated to report means, standard deviations, ranges and percentages. […]
# [3] = tested on: clinically relevant bacterial species; assay: Quantitative microbial culture of osteoarticular fracture fragments (Example 5); assay type: cell-based, Roseomonas sp, Methylobacterium sp; details: for decontamination of osteoarticular tissues based on quantitative microbial tissue cultures (in words): days 7 and 14 of MOPS storage
# Protocol: as §1
# Microbial Cultures. At days 7 (n=21) or 14 (n=21) of storage, osteoarticular fracture fragments were also collected and processed for quantitative microbial culture. […] Microorganism cultures were quantified using Colony-Forming Unit (CFU) counts per milliliter of broth. […] Post incubation, the number of colonies formed on each plate was counted. The number of CFUs per milliliter (CFU/ml) was calculated using the formula: CFU/ml=(number of colonies×dilution factor)/volume inoculated. […]
# as §2
# Staphylococcus aureus = details: 20-minute immersion in 2% chlorhexidine, grossly contaminated bone segments; cited from earlier work
# human chondrocyte = details: cited from earlier work
structure (smiles),measurement,setting,value
"[H]/N=C(\N/C(=N/[H])NCCCCCCNC(=N)NC(=N)Nc1ccc(Cl)cc1)Nc1ccc(Cl)cc1 [Chlorhexidine, chlorhexidine gluconate]","quantitative bacterial culture, Endpoint, Fracture Fragment",[1]; 3 months after reimplantation,0 CFU/g
same,"quantitative bacterial culture, Endpoint, Synovium",[1]; 3 months after reimplantation,0 CFU/g
same,"quantitative bacterial culture, Reimplantation, MOPS Media",[1]; after 0.002% chlorhexidine 20 min and 7 days storage in MOPS,0 CFU/g
same,"quantitative bacterial culture, Initial Trauma, Fracture Fragment","[1]; baseline, before 0.002% chlorhexidine treatment",355 CFU/g and 0 CFU/g and 41 CFU/g
same,"quantitative bacterial culture, Initial Trauma, Synovium","[1]; baseline, before treatment",0 CFU/g (2×) and 119 CFU/g
same,maintenance of minimum essential chondrocyte viability (in words),"[2]; 0.002% chlorhexidine immersion 20 min, shelf-stable storage in MOPS",maintaining minimum essential chondrocyte viability for up to 14 days
same,% VCD (percentage of mean VCD of healthy day-0 samples),[2]; Day 7 of MOPS storage,75.7 ± 24.2%
same,% VCD (percentage of mean VCD of healthy day-0 samples),[2]; Day 14 of MOPS storage,70.1 ± 24.1%
same,% VCD compared with other groups (in words),[2]; days 7 and 14,significantly (p<0.001) higher than for the Betadine and Injured Control groups
same,mean % VCD versus minimum essential threshold,[2]; days 7 and 14 of MOPS storage,> 70%
same,CFUs for clinically relevant bacterial species,[3]; days 7 and 14,No CFUs
same,decontamination of osteoarticular tissues based on quantitative microbial tissue cultures (in words),[3],effective at decontamination
same,decontamination of osteoarticular tissues based on quantitative microbial tissue cultures (in words),[3]; listed as chlorhexidine,effectively decontaminated
same,decontamination of osteoarticular tissues based on quantitative microbial tissue cultures (in words),[3]; listed as chlorhexidine gluconate,effective for decontaminating
same,removal of Staphylococcus aureus burden,Staphylococcus aureus,> 99%
same,chondrocyte viability after treatment,"human chondrocyte; 0.002% chlorhexidine gluconate, 7 days in tissue culture, listed as Chlorhexidine Gluconate",preserving chondrocyte viability for up to 7 days
same,chondrocyte viability after treatment,"human chondrocyte; 0.002% chlorhexidine gluconate, 7 days in tissue culture, listed as chlorhexidine gluconate",maintain chondrocyte viability at day-0 level for 7 days
same,chondrocyte viability after treatment,human chondrocyte; higher concentrations of CHG than 0.002%,significant chondrocyte viability loss within 24 hours
